Key:
Assay type in all cases: in vivo
Striga hermonthica = assay: Parasitic plant germination induction test (Striga hermonthica seeds); settings: in the dark for 2 days; for Germination rate 0.1 nM: compound concentration 0.1 nM; for Germination rate 1 nM: compound concentration 1 nM; for Germination rate 10 nM: compound concentration 10 nM
Description: (§1) A parasitic plant germination induction test was conducted using the compounds synthesized in Example 1 as test compounds. The seeds of a parasitic plant (Striga hermonthica, Orobanche minor, or Phelipanche aegyptiaca) were suspended in sterilized ultrapure water, and this was dispensed in an amount of 100 µL each (containing about 20 seeds) into a 96-well plate. The test compounds or control compounds (Comparison Compound 1 or synthetic Strigolactone (GR^24: Comparison Compound 2)) dissolved in DMSO were individually added thereto to a final concentration of these compounds of 10 nM to 1 fM (1 × 10^-8 to 1 × 10^-15 M), and allowed to stand in the dark for 2 days. The presence or absence of germination was observed using a microscope, and the germination rate (i.e., number of germinated seeds/total number of seeds) was measured. The higher the germination rate in the parasitic plant germination induction test, or the higher the germination rate at lower concentration, the higher the Striga germination inducing activity.
(§2) In Tables 1 to 6, the concentrations (10 nM, 1 nM, and 0.1 nM) represent compound concentrations. In Tables 1-6, the evaluation criteria for the compounds are as follows: • ++: germination rate of 20% or more • +: germination rate of 5% or more and less than 20% • -: germination rate of less than 5% Table 1

Orobanche minor = assay: Parasitic plant germination induction test (Orobanche minor seeds); settings: in the dark for 2 days
Description: as §1, §2

Phelipanche aegyptiaca = assay: Parasitic plant germination induction test (Phelipanche aegyptiaca seeds); settings: in the dark for 2 days
Description: as §1, §2

Molecule	Germination rate 0.1 nM (Striga hermonthica)	Germination rate 1 nM (Striga hermonthica)	Germination rate 10 nM (Striga hermonthica)	Germination rate 0.1 nM (Orobanche minor; compound concentration 0.1 nM)	Germination rate 1 nM (Orobanche minor; compound concentration 1 nM)	Germination rate 10 nM (Orobanche minor; compound concentration 10 nM)	Germination rate 1 nM (Phelipanche aegyptiaca; compound concentration 1 nM)	Germination rate 10 nM (Phelipanche aegyptiaca; compound concentration 10 nM)
CCCOc1ccc(S(=O)(=O)N2CCN(C(=O)OC3C=CC(=O)O3)CC2)cc1 (stereo not shown) [Compound 12]	+ (germination rate of 5% or more and less than 20%)	++ (germination rate of 20% or more)	++ (germination rate of 20% or more)					
CCCCCOc1ccc(S(=O)(=O)N2CCN(C(=O)OC3C=CC(=O)O3)CC2)cc1 (stereo not shown) [Compound 14]	- (germination rate of less than 5%)	++ (germination rate of 20% or more)	++ (germination rate of 20% or more)					
O=C1C=CC(OC(=O)N2CCN(S(=O)(=O)c3cccc(Br)c3)CC2)O1 (stereo not shown) [Compound 19]	- (germination rate of less than 5%)	++ (germination rate of 20% or more)	++ (germination rate of 20% or more)					
CCCCCc1ccc(S(=O)(=O)N2CCN(C(=O)OC3C=CC(=O)O3)CC2)cc1 (stereo not shown) [Compound 17]	+ (germination rate of 5% or more and less than 20%)	+ (germination rate of 5% or more and less than 20%)	++ (germination rate of 20% or more)					
O=C1C=CC(OC(=O)N2CCN(S(=O)(=O)c3ccc(C(F)(F)F)cc3)CC2)O1 (stereo not shown) [Compound 18]	- (germination rate of less than 5%)	+ (germination rate of 5% or more and less than 20%)	++ (germination rate of 20% or more)					
GR^24 [Comparison Compound 2, reference compound]	- (germination rate of less than 5%)	++ (germination rate of 20% or more)	++ (germination rate of 20% or more)	- (germination rate of less than 5%)	+ (germination rate of 5% or more and less than 20%)	++ (germination rate of 20% or more)	- (germination rate of less than 5%)	++ (germination rate of 20% or more)
CCOc1ccc(S(=O)(=O)N2CCN(C(=O)OC3C=CC(=O)O3)CC2)cc1 (stereo not shown) [Compound 11]	+ (germination rate of 5% or more and less than 20%)	++ (germination rate of 20% or more)	++ (germination rate of 20% or more)					
CCCCCc1ccc(S(=O)(=O)N2CCN(C(=O)OC3C=C(C)C(=O)O3)CC2)cc1 (stereo not shown) [Compound 7]	++ (germination rate of 20% or more)	++ (germination rate of 20% or more)	++ (germination rate of 20% or more)					
Cc1ccc(S(=O)(=O)N2CCN(C(=O)OC3C=CC(=O)O3)CC2)cc1 (stereo not shown) [Compound 15]	- (germination rate of less than 5%)	+ (germination rate of 5% or more and less than 20%)	++ (germination rate of 20% or more)					
CC1=CC(OC(=O)N2CCN(S(=O)(=O)c3ccc(C(F)(F)F)cc3)CC2)OC1=O (stereo not shown) [Compound 8]	++ (germination rate of 20% or more)	++ (germination rate of 20% or more)	++ (germination rate of 20% or more)					
CC(C)(C)c1ccccc1OCC1CN(C(=O)OC2C=CC(=O)O2)CCO1 (stereo not shown) [Reference Compound 30]	- (germination rate of less than 5%)	++ (germination rate of 20% or more)	++ (germination rate of 20% or more)					
COc1ccc(S(=O)(=O)N2CCN(C(=O)OC3C=C(C)C(=O)O3)CC2)cc1 (stereo not shown) [Compound 2]	++ (germination rate of 20% or more)	++ (germination rate of 20% or more)	++ (germination rate of 20% or more)					
O=C1C=CC(OC(=O)N2CCN(S(=O)(=O)c3ccc([N+](=O)[O-])cc3)CC2)O1 (stereo not shown) [Compound 20]	- (germination rate of less than 5%)	++ (germination rate of 20% or more)	++ (germination rate of 20% or more)					
CCc1ccc(S(=O)(=O)N2CCN(C(=O)OC3C=C(C)C(=O)O3)CC2)cc1 (stereo not shown) [Compound 6]	++ (germination rate of 20% or more)	++ (germination rate of 20% or more)	++ (germination rate of 20% or more)					
COc1ccc(S(=O)(=O)N2CCN(C(=O)OC3C=CC(=O)O3)CC2)cc1 (stereo not shown) [Compound 10]	- (germination rate of less than 5%)	++ (germination rate of 20% or more)	++ (germination rate of 20% or more)					
CCCCCOc1ccc(S(=O)(=O)N2CCN(C(=O)OC3C=C(C)C(=O)O3)CC2)cc1 (stereo not shown) [Compound 5]	++ (germination rate of 20% or more)	++ (germination rate of 20% or more)	++ (germination rate of 20% or more)					
CC1=CC(OC(=O)N2CCN(S(=O)(=O)c3cccc(Br)c3)CC2)OC1=O (stereo not shown) [Compound 9]	++ (germination rate of 20% or more)	++ (germination rate of 20% or more)	++ (germination rate of 20% or more)					
CCc1ccc(S(=O)(=O)N2CCN(C(=O)OC3C=CC(=O)O3)CC2)cc1 (stereo not shown) [Compound 16]		++ (germination rate of 20% or more)	++ (germination rate of 20% or more)					
